From PubChem BioAssay AID1918952 (Molecular Pharmacology Branch, DTP, NCI, 2023)

Tested on: LG0703-F948-PDC complex spheroid viability
Assay: Anticancer human tumor LG0703-F948-PDC patient-derived lung adenocarcinoma cell line growth inhibition
Conditions: for IC50: curve of first compound; for viability, T/C: stronger effect = lower value
Summary of the method: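 Drug combinations with the LSD1 inhibitor iadademstat tested on tumor cells co-cultured as spheroids with endothelial cells and mesenchymal stem cells. Concentrations descended in half-log increments from clinical Cmax or 10 microM.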

[1] = second compound 0.1 µM, first compound 0.0316 µM
[2] = second compound 0.1 µM, first compound 0.1 µM
[3] = second compound 0.1 µM, first compound 0.316 µM
[4] = second compound 0.1 µM, first compound 1 µM
[5] = second compound 0.1 µM, first compound 3.16 µM
[6] = second compound 0.1 µM, first compound 10 µM
[7] = second compound 0.316 µM, first compound 0.0316 µM
[8] = second compound 0.316 µM, first compound 0.1 µM
[9] = second compound 0.316 µM, first compound 0.316 µM
[10] = second compound 0.316 µM, first compound 1 µM
[11] = second compound 0.316 µM, first compound 3.16 µM
[12] = second compound 0.316 µM, first compound 10 µM
[13] = second compound 1 µM, first compound 0.0316 µM
[14] = second compound 1 µM, first compound 0.1 µM
[15] = second compound 1 µM, first compound 0.316 µM
[16] = second compound 1 µM, first compound 1 µM
[17] = second compound 1 µM, first compound 3.16 µM
[18] = second compound 1 µM, first compound 10 µM
[19] = second compound 3.16 µM, first compound 0.0316 µM
[20] = second compound 3.16 µM, first compound 0.1 µM
[21] = second compound 3.16 µM, first compound 0.316 µM
[22] = second compound 3.16 µM, first compound 1 µM
[23] = second compound 3.16 µM, first compound 3.16 µM
[24] = second compound 3.16 µM, first compound 10 µM
[25] = second compound 10 µM, first compound 0.0316 µM
[26] = second compound 10 µM, first compound 0.1 µM
[27] = second compound 10 µM, first compound 0.316 µM
[28] = second compound 10 µM, first compound 1 µM
[29] = second compound 10 µM, first compound 3.16 µM
[30] = second compound 10 µM, first compound 10 µM
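Note: spheroids exposed to agents for seven days before readout.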
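Throughout, for viability, T/C: 100% = DMSO vehicle control wells as normalization base.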

CC(C)c1c(-c2ccccc2)nc2c(C#N)c[nH]n2c1=O + NC1CC1c1ccc(-c2cccc(O)c2)cc1
IC50 (second compound 0.1 µM): > 10 µM | IC50 (second compound 0.316 µM): > 10 µM | IC50 (second compound 1 µM): > 10 µM | IC50 (second compound 3.16 µM): > 10 µM | IC50 (second compound 10 µM): > 10 µM | viability, T/C [1]: 107% | viability, T/C [2]: 102% | viability, T/C [3]: 115% | viability, T/C [4]: 94.3% | viability, T/C [5]: 110% | viability, T/C [6]: 82.7% | viability, T/C [7]: 97.5% | viability, T/C [8]: 106% | viability, T/C [9]: 117% | viability, T/C [10]: 108% | viability, T/C [11]: 104% | viability, T/C [12]: 91.8% | viability, T/C [13]: 102% | viability, T/C [14]: 109% | viability, T/C [15]: 109% | viability, T/C [16]: 109% | viability, T/C [17]: 90.6% | viability, T/C [18]: 69.7% | viability, T/C [19]: 97.7% | viability, T/C [20]: 93.4% | viability, T/C [21]: 92.5% | viability, T/C [22]: 99.8% | viability, T/C [23]: 80.3% | viability, T/C [24]: 82.3% | viability, T/C [25]: 97.9% | viability, T/C [26]: 97.6% | viability, T/C [27]: 94.9% | viability, T/C [28]: 85.3% | viability, T/C [29]: 88.8% | viability, T/C [30]: 74.2%

CC1COCCN1c1cc(-c2ccnn2C)c2ccnc(-c3ccn[nH]3)c2n1 (stereo not given) + NC1CC1c1ccc(-c2cccc(O)c2)cc1
IC50 (second compound 0.1 µM): 0.0374 µM | IC50 (second compound 0.316 µM): 0.0444 µM | IC50 (second compound 1 µM): 0.0491 µM | IC50 (second compound 3.16 µM): 0.0437 µM | IC50 (second compound 10 µM): 0.0463 µM | viability, T/C (second compound 0.1 µM, first compound 0.00316 µM): 80.4% | viability, T/C (second compound 0.1 µM, first compound 0.01 µM): 74.6% | viability, T/C [1]: 49.8% | viability, T/C [2]: 32.7% | viability, T/C [3]: 20.2% | viability, T/C [4]: 7.17% | viability, T/C (second compound 0.316 µM, first compound 0.00316 µM): 85.5% | viability, T/C (second compound 0.316 µM, first compound 0.01 µM): 72.3% | viability, T/C [7]: 57.9% | viability, T/C [8]: 33.9% | viability, T/C [9]: 18.7% | viability, T/C [10]: 6.39% | viability, T/C (second compound 1 µM, first compound 0.00316 µM): 73% | viability, T/C (second compound 1 µM, first compound 0.01 µM): 70.2% | viability, T/C [13]: 64.1% | viability, T/C [14]: 27.9% | viability, T/C [15]: 21.6% | viability, T/C [16]: 6.68% | viability, T/C (second compound 3.16 µM, first compound 0.00316 µM): 80.8% | viability, T/C (second compound 3.16 µM, first compound 0.01 µM): 77% | viability, T/C [19]: 55.7% | viability, T/C [20]: 31.4% | viability, T/C [21]: 19.1% | viability, T/C [22]: 6.21% | viability, T/C (second compound 10 µM, first compound 0.00316 µM): 91.1% | viability, T/C (second compound 10 µM, first compound 0.01 µM): 82.3% | viability, T/C [25]: 60.4% | viability, T/C [26]: 28.6% | viability, T/C [27]: 18.8% | viability, T/C [28]: 8.21%

CC1COCCN1c1cc(C2(S(C)(=N)=O)CC2)nc(-c2ccnc3[nH]ccc23)n1 (stereo not given) + NC1CC1c1ccc(-c2cccc(O)c2)cc1
IC50 (second compound 0.1 µM): 5 µM | IC50 (second compound 0.316 µM): 4.65 µM | IC50 (second compound 1 µM): 5.24 µM | IC50 (second compound 3.16 µM): 3.55 µM | IC50 (second compound 10 µM): 3.92 µM | viability, T/C [1]: 120% | viability, T/C [2]: 104% | viability, T/C [3]: 92.9% | viability, T/C [4]: 92.1% | viability, T/C [5]: 69.7% | viability, T/C [6]: 24.1% | viability, T/C [7]: 111% | viability, T/C [8]: 101% | viability, T/C [9]: 118% | viability, T/C [10]: 97% | viability, T/C [11]: 63.8% | viability, T/C [12]: 23.6% | viability, T/C [13]: 111% | viability, T/C [14]: 97.9% | viability, T/C [15]: 113% | viability, T/C [16]: 102% | viability, T/C [17]: 70.8% | viability, T/C [18]: 23.4% | viability, T/C [19]: 96% | viability, T/C [20]: 89.8% | viability, T/C [21]: 102% | viability, T/C [22]: 79.5% | viability, T/C [23]: 54.1% | viability, T/C [24]: 22.4% | viability, T/C [25]: 96.5% | viability, T/C [26]: 98.9% | viability, T/C [27]: 91.1% | viability, T/C [28]: 79.7% | viability, T/C [29]: 58.6% | viability, T/C [30]: 14.8%
